How the values were obtained:
[1] = tested on: E. multilocularis metacestode vesicles; assay: Phosphoglucose isomerase (PGI) release assay (damage-marker release) on metacestode vesicles; type: cell-based, Echinococcus multilocularis; conditions: 10 μM; for PGI d5 (relative PGI release): 5 days; for PGI d12 (relative PGI release): 12 days
[2] = tested on: E. multilocularis metacestode vesicles; assay: Metacestode vesicle viability assay (ATP, CellTiter-Glo); type: cell-based, Echinococcus multilocularis
Experimental: Viability was assessed after 12 days using the same metacestode vesicles as for the PGI release assay. Triton X-100 was added to each well to a final concentration of 0.1 %. Subsequently the metacestode vesicles were broken mechanically and 50 μL of the supernatant was mixed with 50 μL of CellTiter-Glo® buffer (Promega, Dübendorf, Switzerland). Measurements were performed on a HIDEX Sense microplate reader.

[3] = overview screen, singlets, relative to 0.1 % Triton X-100, DMSO subtracted
[4] = overview screen, 10 μM, singlets, 12 days, relative to DMSO control
[5] = confirmation screen, triplicates, mean
[6] = confirmation screen, 10 μM, triplicates, mean, 12 days

SMILES	PGI d5 (relative PGI release) [1, 3] [%]	PGI d12 (relative PGI release) [1, 3] [%]	Viability d12 (relative viability) [2, 4] [%]	PGI d5 (relative PGI release) [1, 5] [%]	PGI d12 (relative PGI release) [1, 5] [%]	Viability d12 (relative viability) [2, 6] [%]	Viability d12 (relative viability) ([2]; 10 µM) [%]
NC(=O)c1ccccc1NC(=O)c1ccc(C(=O)Nc2ccccc2C(N)=O)cc1 [MMV508427]	-1.548	-12.1939	83.3301				
NC(=O)c1cnc2ccc(S(=O)(=O)c3ccccc3)cc2c1Nc1ccc(O)cc1 [MMV1580848]	-0.9531	29.1599	51.7682				
CCOC(=O)/C=C/[C@H](C[C@@H]1CCNC1=O)NC(=O)[C@@H](CC(=O)[C@@H](NC(=O)c1cc(C)on1)C(C)C)Cc1ccc(F)cc1 [MMV1580491]	0.4485	-17.2617	181.789				
FC(F)(F)Oc1ccc(Nc2ccc3cccc(Cl)c3n2)cc1 [MMV1581032]	-0.01272	18.8065	85.6723				
CC(C)N=c1cc2n(-c3ccc(Cl)cc3)c3ccccc3nc-2cc1Nc1ccc(Cl)cc1 [MMV687800]	10.9227	104.553	4.175	0.81	1.29	142.49	
CN(C)CC(=O)Nc1ccc2[nH]c(=O)c3ccccc3c2c1 [MMV1580480]	-0.09241	-0.9318	169.884				
CCc1nc2ccccn2c1C(=O)NCc1ccccc1 [MMV1663457]	-2.34	-12.7903	46.6749				
O=C1[C@H](CC[C@H](O)c2ccc(F)cc2)[C@@H](c2ccc(O)cc2)N1c1ccc(F)cc1 [MMV1581377]	-0.5323	22.6699	84.8656				
CC(=O)N[C@H](C)C(=O)N[C@H](Cc1ccccc1)C(=O)O [MMV1580845]	0.2541	-2.372	90.1704				
C[C@@]1(O)[C@H](O)[C@@H](CO)O[C@H]1n1ccc2c(N)ncnc21 [MMV1593519]	0.01923	0.1259	152.992				
Cc1cc(C2CCCCC2)n(O)c(=O)c1 [MMV002731]	-0.5492	-23.4097					50.1817
CN(C)c1[nH]c(=O)ncc1F [MMV1782223]	-2.446	-24.7543	98.8605				
CC(C)C(=O)N[C@H]1[C@H]([C@H](O)[C@H](O)CO)OC(C(=O)O)=C[C@@H]1N=[N+]=[N-] [MMV1782111]	-0.6196	0.1424	85.5263				
CCOC(=O)N[C@@H]1CC[C@@H]2[C@@H](C1)C[C@H]1C(=O)O[C@H](C)[C@H]1[C@H]2/C=C/c1ccc(-c2cccc(F)c2)cn1 [MMV1593515]	1.1006	-17.1599	74.5757				
CCOCc1nc2c(N)nc3ccccc3c2n1CC(C)(C)O [MMV690547]	0.01909	53.3537	9.628	0.18	0.96	159.08	
O=C(O)c1cc(-c2ccc(Br)cc2)nc2ccc(Cl)cc12 [MMV247764]	0.5774	-0.4305	115.677				
CC[C@@H]1C(=O)OC[C@@H]1Cc1cncn1C.Cl [MMV002516]	-2.121	-7.265	84.666				
O=C(O)c1sccc1S(=O)(=O)n1ccc2cc(Br)ccc21 [MMV1580855]	0.195	35.1913	69.7674				

SMILES	PGI d5 (relative PGI release) [1, 3] [%]	PGI d12 (relative PGI release) [1, 3] [%]	Viability d12 (relative viability) [2, 4] [%]	PGI d5 (relative PGI release) [1, 5] [%]	PGI d12 (relative PGI release) [1, 5] [%]	Viability d12 (relative viability) [2, 6] [%]	Viability d12 (relative viability) ([2]; 10 µM) [%]
Cc1ncc([N+](=O)[O-])n1CC(O)CN1CCOCC1 (stereo not drawn) [MMV1613562]	0.195	-6.037	97.4765				
O=C(NNC(=S)Nc1ccc(Cl)cc1)c1ccncc1 [MMV1782227]	3.665	72.3585	12.3576	0.0543	-0.30	83.65	
COc1ccc(C)cc1NC(=O)c1ccc(S(=O)(=O)N2CCCCC2)cc1 [MMV1578579]	-1.553	-13.2873	52.1022				
C[C@@H](NC(=O)c1cccc(-c2cnc(-c3cc4ccccc4cn3)[nH]2)c1)c1ccc(F)cc1 [MMV1782211]	2.451	6.1027	82.804				
CSc1ccc2c(c1)C(N1CCN(C)CC1)Cc1ccccc1S2 (stereo not drawn) [MMV002505]	0.4968	-0.02837	82.0463				
CC(C)Nc1ncnc2c1cnn2-c1ccc(Cl)cc1 [MMV108465]	-2.878	28.117	65.6735				
CC(C)CCN1C(=O)C(C2=NS(=O)(=O)c3cc(NS(C)(=O)=O)ccc3N2)=C(O)[C@@H]2[C@H]3CC[C@H](C3)[C@@H]21 [MMV1782220]	0.5402	0.853	132.239				
O=C(Nc1ncc(Cc2cccc3ccccc23)s1)C1CCCCC1 [MMV1593532]	-1.117	-3.615	94.209				
O=C(N[C@H](CCS)C(=O)N[C@H](Cc1ccccc1)C(=O)O)c1cc2ccccc2[nH]1 [MMV1581557]	-0.9852	-10.8141	26.3851				
O=C(O)c1ccccc1Sc1ncnc2sc3c(c12)CCC3 [MMV1579878]	-1.729	-24.5374	137.353				
COC(=O)Nc1nc2cc(Sc3ccccc3)ccc2[nH]1 [MMV003143]	2.636	9.38	13.6935				
Cc1cc(CCCOc2c(C)cc(-c3noc(C(F)(F)F)n3)cc2C)on1 [MMV690467]	0.4162	0.2856	74.4224				
O=C(CCc1ccc2c(c1)OCO2)NCc1ccc(-c2ccccc2F)cc1 [MMV1782110]	-0.8152	-13.3688	100.363				
Cc1c[nH]c(=O)nc1NCc1ccccc1 [MMV1582489]	-0.6323	-1.8719	140.789				
COc1ccc2cc3[n+](cc2c1OCCN(CCn1cncn1)Cc1ccc(F)cc1F)CCc1cc2c(cc1-3)OCO2 [MMV1593540]	1.275	36.6613	37.1562				
COc1ccc(SCC(=O)N2c3ccccc3Sc3ccccc32)cc1 [MMV1578573]	-3.455	-10.5042	50.7662				
CCc1nc(N)nc(N)c1C#CC(C)c1cc(OC)cc(-c2ccncc2)c1 (stereo not drawn) [MMV1580844]	-2.169	33.6502	16.6994	-0.46	0.83	84.60	

— publication PMC12410356 (International Journal for Parasitology: Drugs and Drug …, 2025)
